Experimental data reported in US20250353891A1 (MEDIMMUNE LIMITED, priority 2022, published 2025).
Like-named read-outs stand apart in the source and are kept apart here. Starred links: 1 amine or outer side, 2 acyl side, 3 side chain; linkers in the order of their positions; H or OH if unused. Non-standard residues stand in square brackets, D forms with d. Residues, ends and D or L forms follow the SMILES beside them. Groups on a side chain read outwards from the residue. *: point of attachment. C20 diacid = O=C(O)CCCCCCCCCCCCCCCCCCC(=O)*; C18 diacid = O=C(O)CCCCCCCCCCCCCCCCC(=O)*; γGlu = O=C(O)[C@H](CCC(=O)[*:2])N[*:1]; αMeF = C[C@](N)(Cc1ccccc1)C(=O)O; AEEA = NCCOCCOCC(=O)O; Aib = CC(C)(N)C(=O)O

How the values were obtained:
[1] = target: human glucagon receptor (hGCGR) (Homo sapiens, UniProt P47871); assay: cAMP production (HTRF) in CHO cells expressing hGCGR; format: cell-based; design: expressed in transfected cells; details: Table 6, peptides modified at position 17, cAMP in CHO hGCGR cells, geometric mean
Sequence of human glucagon receptor (hGCGR) (P47871 26-477): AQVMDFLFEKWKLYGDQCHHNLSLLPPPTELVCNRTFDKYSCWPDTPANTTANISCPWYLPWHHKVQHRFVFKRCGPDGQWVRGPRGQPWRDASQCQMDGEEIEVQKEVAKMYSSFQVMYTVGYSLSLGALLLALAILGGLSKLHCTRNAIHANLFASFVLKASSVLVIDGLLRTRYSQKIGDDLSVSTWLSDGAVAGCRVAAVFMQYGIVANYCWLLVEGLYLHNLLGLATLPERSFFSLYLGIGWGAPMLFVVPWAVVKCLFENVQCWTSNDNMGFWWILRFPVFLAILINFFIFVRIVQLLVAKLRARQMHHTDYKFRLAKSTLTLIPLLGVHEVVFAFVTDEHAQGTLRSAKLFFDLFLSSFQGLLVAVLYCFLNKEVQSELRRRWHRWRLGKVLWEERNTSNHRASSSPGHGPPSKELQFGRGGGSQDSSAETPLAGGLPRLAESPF
Method in brief: (§1)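 Cells were resuspended in assay buffer at batch-optimized density, typically 1×10^5 cells/mL for hGLP-1R and 2×10^5 cells/mL for hGCGR. After 30 min incubation at room temperature with compound, cAMP was measured by two-step HTRF. EC50 values came from 4-parameter logistic fits of % Delta F.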

[2] = target: human GLP-1 receptor (hGLP-1R) (Homo sapiens, UniProt P43220); assay: cAMP production (HTRF) in CHO cells expressing hGLP-1R; format: cell-based; design: expressed in transfected cells; details: for EC50: Table 6, peptides modified at position 17, cAMP in CHO hGLP-1R cells, geometric mean; for % Relative Potency Ratio: Table 6, % GLP-1R activity relative to GLP-1 / % GlucR activity relative to glucagon
Sequence of human GLP-1 receptor (hGLP-1R) (P43220 24-463): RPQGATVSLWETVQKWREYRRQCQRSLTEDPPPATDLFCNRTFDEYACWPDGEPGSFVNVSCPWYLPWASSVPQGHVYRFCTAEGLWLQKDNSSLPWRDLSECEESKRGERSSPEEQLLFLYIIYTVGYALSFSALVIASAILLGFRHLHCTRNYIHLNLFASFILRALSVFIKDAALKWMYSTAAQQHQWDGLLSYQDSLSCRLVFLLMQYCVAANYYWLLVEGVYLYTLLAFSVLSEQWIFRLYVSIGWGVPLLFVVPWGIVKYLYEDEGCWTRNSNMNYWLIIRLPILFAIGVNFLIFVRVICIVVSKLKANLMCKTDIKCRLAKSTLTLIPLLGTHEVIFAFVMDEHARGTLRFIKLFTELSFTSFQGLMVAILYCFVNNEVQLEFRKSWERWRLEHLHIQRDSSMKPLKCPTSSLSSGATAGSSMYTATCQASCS
Method in brief: as §1

| SMILES | EC50 ([1]; hGluc-R EC50 (pM)) | EC50 ([2]; hGLP-1R EC50 (pM)) | EC50 ([1]; read-out: hGluc-R EC50) | EC50 ([2]; read-out: hGLP-1R EC50) | % Relative Potency Ratio [2] |
| --- | --- | --- | --- | --- | --- |
| CC(C)C[C@H](NC(=O)[C@H](Cc1c[nH]c2ccccc12)NC(=O)[C@H](CCC(N)=O)NC(=O)[C@@H](NC(=O)[C@H](Cc1ccccc1)NC(=O)[C@H](CC(=O)O)NC(=O)[C@H](CCCNC(=N)N)NC(=O)[C@H](C)NC(=O)[C@H](CCCNC(=N)N)NC(=O)[C@H](CCCCNC(=O)COCCOCCNC(=O)COCCOCCNC(=O)CC[C@H](NC(=O)CCCCCCCCCCCCCCCCC(=O)O)C(=O)O)NC(=O)[C@@H](NC(=O)[C@H](CCC(=O)O)NC(=O)[C@H](CC(C)C)NC(=O)[C@](C)(Cc1ccccc1)NC(=O)[C@H](CCCCN)NC(=O)[C@H](CO)NC(=O)[C@@H](NC(=O)[C@H](CC(=O)O)NC(=O)[C@H](CO)NC(=O)[C@@H](NC(=O)[C@H](Cc1ccccc1)NC(=O)[C@@H](NC(=O)CNC(=O)[C@H](CCC(N)=O)NC(=O)C(C)(C)NC(=O)[C@@H](N)Cc1c[nH]cn1)[C@@H](C)O)[C@@H](C)O)C(C)C)[C@@H](C)O)C(C)C)C(=O)N[C@@H](CC(C)C)C(=O)N[C@@H](CCC(=O)O)C(=O)NC(C)(C)C(=O)NCC(=O)O [Peptide 445] (H-H[Aib]QGTFTSDVSK[αMeF]LETK([AEEA-AEEA-γGlu-C18 diacid])RARDFVQWLLE[Aib]G-OH) | 684 pM | 33 pM |  |  |  |
| CC(C)C[C@H](NC(=O)[C@H](Cc1c[nH]c2ccccc12)NC(=O)[C@H](CCCNC(=N)N)NC(=O)[C@@H](NC(=O)[C@H](Cc1ccccc1)NC(=O)[C@H](CC(=O)O)NC(=O)[C@H](CCC(N)=O)NC(=O)[C@H](C)NC(=O)[C@H](CCCNC(=N)N)NC(=O)[C@H](CCCCNC(=O)COCCOCCNC(=O)COCCOCCNC(=O)CC[C@H](NC(=O)CC[C@H](NC(=O)CCCCCCCCCCCCCCCCC(=O)O)C(=O)O)C(=O)O)NC(=O)[C@H](CCCNC(=N)N)NC(=O)[C@H](CC(=O)O)NC(=O)[C@H](CC(C)C)NC(=O)[C@](C)(Cc1ccccc1)NC(=O)[C@H](CCCCN)NC(=O)[C@H](CO)NC(=O)[C@@H](NC(=O)[C@H](CC(=O)O)NC(=O)[C@H](CO)NC(=O)[C@@H](NC(=O)[C@H](Cc1ccccc1)NC(=O)[C@@H](NC(=O)CNC(=O)[C@H](CCC(N)=O)NC(=O)C(C)(C)NC(=O)[C@@H](N)Cc1c[nH]cn1)[C@@H](C)O)[C@@H](C)O)C(C)C)C(C)C)C(=O)N[C@H](C(=O)NC(C)(C)C(=O)N[C@@H](CCC(=O)O)C(N)=O)C(C)C [Peptide 446] (H-H[Aib]QGTFTSDVSK[αMeF]LDRK([AEEA-AEEA-γGlu-γGlu-C18 diacid])RAQDFVRWLV[Aib]E-NH2; N-terminus assumed) |  |  | 366 pM | 32.9 pM | 22.0 |
| CC(C)C[C@H](NC(=O)[C@H](Cc1c[nH]c2ccccc12)NC(=O)[C@H](CCCNC(=N)N)NC(=O)[C@@H](NC(=O)[C@H](Cc1ccccc1)NC(=O)[C@H](CC(=O)O)NC(=O)[C@H](CCC(N)=O)NC(=O)[C@H](C)NC(=O)[C@H](CCCNC(=N)N)NC(=O)[C@H](CCCCNC(=O)COCCOCCNC(=O)COCCOCCNC(=O)CC[C@H](NC(=O)CC[C@H](NC(=O)CCCCCCCCCCCCCCCCCCC(=O)O)C(=O)O)C(=O)O)NC(=O)[C@H](CCCNC(=N)N)NC(=O)[C@H](CC(=O)O)NC(=O)[C@H](CC(C)C)NC(=O)[C@](C)(Cc1ccccc1)NC(=O)[C@H](CCCCN)NC(=O)[C@H](CO)NC(=O)[C@@H](NC(=O)[C@H](CC(=O)O)NC(=O)[C@H](CO)NC(=O)[C@@H](NC(=O)[C@H](Cc1ccccc1)NC(=O)[C@@H](NC(=O)CNC(=O)[C@H](CCC(N)=O)NC(=O)C(C)(C)NC(=O)[C@@H](N)Cc1c[nH]cn1)[C@@H](C)O)[C@@H](C)O)C(C)C)C(C)C)C(=O)N[C@H](C(=O)NC(C)(C)C(=O)N[C@@H](CCC(=O)O)C(N)=O)C(C)C [Peptide 447] (H-H[Aib]QGTFTSDVSK[αMeF]LDRK([AEEA-AEEA-γGlu-γGlu-C20 diacid])RAQDFVRWLV[Aib]E-NH2; N-terminus assumed) |  |  | 667 pM | 170 pM | 7.8 |
| CC(C)C[C@H](NC(=O)[C@H](Cc1c[nH]c2ccccc12)NC(=O)[C@H](CCCNC(=N)N)NC(=O)[C@@H](NC(=O)[C@H](Cc1ccccc1)NC(=O)[C@H](CC(=O)O)NC(=O)[C@H](CCCNC(=N)N)NC(=O)[C@H](C)NC(=O)[C@H](CCCNC(=N)N)NC(=O)[C@H](CCCCNC(=O)COCCOCCNC(=O)COCCOCCNC(=O)CC[C@H](NC(=O)CC[C@H](NC(=O)CCCCCCCCCCCCCCCCC(=O)O)C(=O)O)C(=O)O)NC(=O)[C@H](CCCCN)NC(=O)[C@H](CC(=O)O)NC(=O)[C@H](CC(C)C)NC(=O)[C@](C)(Cc1ccccc1)NC(=O)[C@H](CCCCN)NC(=O)[C@H](CO)NC(=O)[C@@H](NC(=O)[C@H](CC(=O)O)NC(=O)[C@H](CO)NC(=O)[C@@H](NC(=O)[C@H](Cc1ccccc1)NC(=O)[C@@H](NC(=O)CNC(=O)[C@H](CCC(N)=O)NC(=O)C(C)(C)NC(=O)[C@@H](N)Cc1c[nH]cn1)[C@@H](C)O)[C@@H](C)O)C(C)C)C(C)C)C(=O)N[C@@H](CC(C)C)C(=O)NC(C)(C)C(=O)N[C@@H](CCC(=O)O)C(=O)O [Peptide 448] (H-H[Aib]QGTFTSDVSK[αMeF]LDKK([AEEA-AEEA-γGlu-γGlu-C18 diacid])RARDFVRWLL[Aib]E-OH) |  |  | 29 pM | 53.1 pM | 1.1 |
| CC(C)C[C@H](NC(=O)[C@H](Cc1c[nH]c2ccccc12)NC(=O)[C@H](CCC(N)=O)NC(=O)[C@@H](NC(=O)[C@H](Cc1ccccc1)NC(=O)[C@H](CC(=O)O)NC(=O)[C@H](CCCNC(=N)N)NC(=O)[C@H](C)NC(=O)[C@H](CCCNC(=N)N)NC(=O)[C@H](CCCCNC(=O)COCCOCCNC(=O)COCCOCCNC(=O)CC[C@H](NC(=O)CC[C@H](NC(=O)CCCCCCCCCCCCCCCCCCC(=O)O)C(=O)O)C(=O)O)NC(=O)[C@@H](NC(=O)[C@H](CC(=O)O)NC(=O)[C@H](CC(C)C)NC(=O)[C@](C)(Cc1ccccc1)NC(=O)[C@H](CCCCN)NC(=O)[C@H](CO)NC(=O)[C@@H](NC(=O)[C@H](CC(=O)O)NC(=O)[C@H](CO)NC(=O)[C@@H](NC(=O)[C@H](Cc1ccccc1)NC(=O)[C@@H](NC(=O)CNC(=O)[C@H](CCC(N)=O)NC(=O)C(C)(C)NC(=O)[C@@H](N)Cc1c[nH]cn1)[C@@H](C)O)[C@@H](C)O)C(C)C)[C@@H](C)O)C(C)C)C(=O)N[C@@H](CC(C)C)C(=O)N[C@@H](CCC(=O)O)C(=O)NC(C)(C)C(=O)NCC(=O)O [Peptide 449] |  |  | 242 pM | 207 pM | 2.3 |
| CC(C)C[C@H](NC(=O)[C@H](Cc1c[nH]c2ccccc12)NC(=O)[C@H](CCCNC(=N)N)NC(=O)[C@@H](NC(=O)[C@H](Cc1ccccc1)NC(=O)[C@H](CC(=O)O)NC(=O)[C@H](CCC(N)=O)NC(=O)[C@H](C)NC(=O)[C@H](CCCNC(=N)N)NC(=O)[C@H](CCCCNC(=O)COCCOCCNC(=O)COCCOCCNC(=O)CC[C@H](NC(=O)CC[C@H](NC(=O)CCCCCCCCCCCCCCCCC(=O)O)C(=O)O)C(=O)O)NC(=O)[C@H](CCCCN)NC(=O)[C@H](CC(=O)O)NC(=O)[C@H](CC(C)C)NC(=O)[C@](C)(Cc1ccccc1)NC(=O)[C@H](CCCCN)NC(=O)[C@H](CO)NC(=O)[C@@H](NC(=O)[C@H](CC(=O)O)NC(=O)[C@H](CO)NC(=O)[C@@H](NC(=O)[C@H](Cc1ccccc1)NC(=O)[C@@H](NC(=O)CNC(=O)[C@H](CCC(N)=O)NC(=O)C(C)(C)NC(=O)[C@@H](N)Cc1c[nH]cn1)[C@@H](C)O)[C@@H](C)O)C(C)C)C(C)C)C(=O)N[C@@H](CC(C)C)C(=O)N[C@@H](CCC(=O)O)C(=O)NC(C)(C)C(=O)NCC(=O)O [Peptide 450] (H-H[Aib]QGTFTSDVSK[αMeF]LDKK([AEEA-AEEA-γGlu-γGlu-C18 diacid])RAQDFVRWLLE[Aib]G-OH; N-terminus assumed) |  |  | 57.8 pM | 57.3 pM | 2.0 |
